Here are results for three compounds from patent publication US10988507B2, “Immunomodulators” (Bristol-Myers Squibb Company, priority 2016, dated 2021).

For series [1] the following is noted: oral administration, extensive first-pass metabolism in the liver; cited from earlier work.
In series [2] the target is PD-1-Ig binding to PD-L1-TVMV-His (PD-L1-His) (Homo sapiens (Human), UniProt Q9NZQ7). Briefly: PD-1/PD-L1 Homogenous Time-Resolved Fluorescence (HTRF) binding assay. To be noted: PD-1-Ig (20 nM)/PD-L1-His (10 nM) binding assay. The text has this: The ability of the macrocyclic peptides of the present disclosure to bind to PD-L1 was investigated using a PD-1/PD-L1 Homogenous Time-Resolved Fluorescence (HTRF) binding assay.
Chain of PD-1-Ig binding to PD-L1-TVMV-His (PD-L1-His) (Q9NZQ7 other isoform, or with tags, fused parts or gaps): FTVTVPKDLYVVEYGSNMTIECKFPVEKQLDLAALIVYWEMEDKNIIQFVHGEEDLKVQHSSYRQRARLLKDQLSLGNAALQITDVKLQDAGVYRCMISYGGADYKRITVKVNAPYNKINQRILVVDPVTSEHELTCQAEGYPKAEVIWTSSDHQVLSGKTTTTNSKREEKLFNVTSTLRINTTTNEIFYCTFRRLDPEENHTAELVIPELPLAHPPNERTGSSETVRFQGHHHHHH
Homogenous Time-Resolved Fluorescence (HTRF) Assays of Binding of Soluble PD-1 to Soluble PD-L1. Soluble PD-1 and soluble PD-L1 refers to proteins with carboxyl-end truncations that remove the transmembrane-spanning regions and are fused to heterologous sequences, specifically the Fc portion of the human immunoglobuling G sequence (Ig) or the hexahistidine epitope tag (His). All binding studies were performed in an HTRF assay buffer consisting of dPBS supplemented with 0.1% (w/v) bovine serum albumin and 0.05% (v/v) Tween-20. For the PD-1-Ig/PD-L1-His binding assay, inhibitors were pre-incubated with PD-L1-His (10 nM final) for 15 m in 4 μl of assay buffer, followed by addition of PD-1-Ig (20 nM final) in 1 μl of assay buffer and further incubation for 15 m. PD-L1 fusion proteins from either human, cynomologous macaques, mouse, or other species were used. HTRF detection was achieved using europium crypate-labeled anti-Ig monoclonal antibody (1 nM final) and allophycocyanin (APC) labeled anti-His monoclonal antibody (20 nM final). Antibodies were diluted in HTRF detection buffer and 5 μl was dispensed on top of binding reaction. […]
In general terms: TR-FRET usually uses a lanthanide donor and a delayed reading to cut background.

Where a SMILES comes first, the peptide text is derived from it. Bridges are numbered along the chain shown (N, C = ends). [ ]: non-standard residue; d: D form. The star is where a group is joined. Palmitoyl = CCCCCCCCCCCCCCCC(=O)*; Hyp = O=C(O)[C@@H]1C[C@@H](O)CN1; Myristoyl = CCCCCCCCCCCCCC(=O)*; NMeNle = CCCC[C@H](NC)C(=O)O; NMeA = CN[C@@H](C)C(=O)O

Take `CCCC1O[C@@H]2C[C@H]3[C@@H]4CCC5=CC(=O)C=C[C@]5(C)[C@H]4[C@@H](O)C[C@]3(C)[C@]2(C(=O)CO)O1` (stereo partly drawn) [budesonide]: the bioavailability result in series [1] was “about 10%”.
With `CCCCCCCCCCCCCCCC(=O)NCCCC[C@@H]1NC(=O)[C@H](CCCC)N(C)C(=O)[C@H](CCCC)N(C)C(=O)[C@H](Cc2c[nH]c3ccccc23)NC(=O)[C@H](CO)NC(=O)[C@H](Cc2c[nH]c3ccccc23)NC(=O)[C@@H]2C[C@@H](O)CN2C(=O)[C@H](CC(C)C)NC(=O)[C@H](Cc2cnc[nH]2)NC(=O)[C@@H]2CCCN2C(=O)[C@H](CC(=O)O)NC(=O)[C@H](C)N(C)C(=O)[C@H](Cc2ccc(O)cc2)NC(=O)CSC[C@@H](C(=O)NCC(N)=O)NC1=O` [Example 11058] ({CH2CO}-Y[NMeA]DPHL[Hyp]WSW[NMeNle][NMeNle]K(Palmitoyl)CG-NH2; thioether N-14), the IC50 (commonly the concentration that inhibits the measured activity by half) in series [2] was found to be 1930 nM. That is a single-digit micromolar value.
Regarding `CCCCCCCCCCCCCC(=O)NCCCC[C@@H]1NC(=O)[C@H](CCCC)N(C)C(=O)[C@H](CCCC)N(C)C(=O)[C@H](Cc2c[nH]c3ccccc23)NC(=O)[C@H](CO)NC(=O)[C@H](Cc2c[nH]c3ccccc23)NC(=O)[C@@H]2C[C@@H](O)CN2C(=O)[C@H](CC(C)C)NC(=O)[C@H](Cc2cnc[nH]2)NC(=O)[C@@H]2CCCN2C(=O)[C@H](CC(=O)O)NC(=O)[C@H](C)N(C)C(=O)[C@H](Cc2ccc(O)cc2)NC(=O)CSC[C@@H](C(=O)NCC(N)=O)NC1=O` [Example 11059] ({CH2CO}-Y[NMeA]DPHL[Hyp]WSW[NMeNle][NMeNle]K(Myristoyl)CG-NH2; thioether N-14), in series [2], the IC50 was 690 nM.
